Publication PMC3622683, “Purification, Gene Cloning, and Biochemical Characterization of a β-Glucosidase Capable of Hydrolyzing Sesaminol Triglucoside from Paenibacillus sp. KB0549” (PLoS ONE, 2013)

Target: T1, rPSTG (recombinant PSTG, STG-hydrolyzing β-glucosidase) (Paenibacillus relictisesami, UniProt D6RVX0)
T1 construct: full-length 753 aa, 83,298 Da, no signal peptide; expressed from pDEST17 in E. coli BL21-AI, HisTrap purified (tag cleavage not mentioned); likely tetramer, 310 kDa; GH3
T1 sequence (D6RVX0 1-753): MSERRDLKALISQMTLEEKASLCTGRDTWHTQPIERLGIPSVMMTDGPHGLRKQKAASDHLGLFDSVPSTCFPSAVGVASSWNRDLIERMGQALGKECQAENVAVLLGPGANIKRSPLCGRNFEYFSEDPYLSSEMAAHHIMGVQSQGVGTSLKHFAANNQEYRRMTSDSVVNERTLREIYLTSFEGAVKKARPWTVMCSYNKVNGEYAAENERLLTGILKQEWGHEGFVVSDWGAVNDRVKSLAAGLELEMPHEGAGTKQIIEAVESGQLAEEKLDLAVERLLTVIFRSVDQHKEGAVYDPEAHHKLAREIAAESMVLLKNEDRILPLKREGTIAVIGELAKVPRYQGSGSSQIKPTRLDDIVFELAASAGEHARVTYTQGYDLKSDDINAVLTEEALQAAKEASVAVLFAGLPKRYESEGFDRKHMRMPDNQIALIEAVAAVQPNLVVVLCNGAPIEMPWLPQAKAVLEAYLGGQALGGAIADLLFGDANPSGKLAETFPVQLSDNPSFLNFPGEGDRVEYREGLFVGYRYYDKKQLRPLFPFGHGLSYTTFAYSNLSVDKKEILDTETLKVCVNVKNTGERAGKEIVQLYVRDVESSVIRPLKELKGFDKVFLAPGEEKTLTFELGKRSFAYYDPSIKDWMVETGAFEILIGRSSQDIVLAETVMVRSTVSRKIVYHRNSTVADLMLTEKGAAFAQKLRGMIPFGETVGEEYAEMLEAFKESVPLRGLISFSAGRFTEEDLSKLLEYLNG
Assay: p-nitrophenol release, absorbance at […] nm
Format: biochemical
Settings: pH 7.0, 37°C, potassium phosphate

Km: > 10 mM
Compound: C[C@H]1O[C@@H](Oc2ccc([N+](=O)[O-])cc2)[C@H](O)[C@@H](O)[C@H]1O [pNP-β-D-fucopyranoside]
